Source: the supplement of paper PMC10307832

Tests used:
Experiment in all cases: relative viability (nuclei count vs DMSO), 5 days (fraction); higher = more cells survive
[1] = compound: Nc1ccccc1NC(=O)c1ccc(CNC(=O)OCc2cccnc2)cc1 [Entinostat] + O=C(CCCCCCC(=O)Nc1ccccc1)NO [Vorinostat] (partner 1 µM)
In short: (§1)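 Cells from lung cancer lines were seeded into 1536-well plates and, one day later, dosed by pin tool. Treatments were either a single drug or a fixed dose of an anchor drug with five library-drug doses (not always all listed) in √10 steps. After 5 days, nuclei were stained in a one-step fixation (final 0.05% Triton X-100, 1% formaldehyde, 1 ug/ml Hoechst) and counted on 4× images, and relative viability is the treated-to-vehicle nuclei ratio, as the median of duplicate plates.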

[2] = compound: CN1CCC(CNc2ccc3ncc(-c4cccc(OC(F)(F)F)c4)n3n2)CC1 [SGI-1776] + Cc1cc(Nc2cc(N3CCN(C)CC3)nc(Sc3ccc(NC(=O)C4CC4)cc3)n2)n[nH]1 [Tozasertib] (partner 0.1 µM)
In short: as §1

[3] = compound: CN1CCC(CNc2ccc3ncc(-c4cccc(OC(F)(F)F)c4)n3n2)CC1 [SGI-1776] + CCNC(=O)c1noc(-c2cc(C(C)C)c(O)cc2O)c1-c1ccc(CN2CCOCC2)cc1 [Luminespib] (partner 0.01 µM)
In short: as §1

[4] = compound: CN1CCC(CNc2ccc3ncc(-c4cccc(OC(F)(F)F)c4)n3n2)CC1 [SGI-1776] + Cc1nc(Nc2ncc(C(=O)Nc3c(C)cccc3Cl)s2)cc(N2CCN(CCO)CC2)n1 [Dasatinib] (partner 0.075 µM)
In short: as §1

UMC-11 gave a relative viability ([1]; first compound 0.02 µM) of 0.43, a relative viability ([1]; first compound 0.06325 µM) of 0.321 and a relative viability ([1]; first compound 0.2 µM) of 0.242. For the same cell line, the relative viability ([1]; first compound 0.6325 µM) was 0.181, the relative viability ([1]; first compound 2 µM) was 0.12 and the relative viability ([2]; first compound 0.08 µM) was 0.21. For the same cell line, the relative viability ([2]; first compound 0.8 µM) was 0.194, the relative viability ([2]; first compound 2.53 µM) was 0.208 and the relative viability ([2]; first compound 8 µM) was 0.197. For the same cell line, the relative viability ([3]; first compound 0.08 µM) was 1.02, the relative viability ([3]; first compound 0.8 µM) was 0.971 and the relative viability ([3]; first compound 2.53 µM) was 0.899. For the same cell line, the relative viability ([3]; first compound 8 µM) was 0.862, the relative viability ([4]; first compound 0.08 µM) was 0.449 and the relative viability ([4]; first compound 0.8 µM) was 0.455. The relative viability ([4]; first compound 2.53 µM) was 0.615 and the relative viability ([4]; first compound 8 µM) was 0.392.
